{"source": "paper PMC5940854", "about": "“Nitrothiophene carboxamides, a novel narrow spectrum antibacterial series: Mechanism of action and Efficacy” (Scientific Reports, 2018)", "key": {"[1]": {"system": "wild-type E. coli CGSC#7636 (BW25113)", "experiment": "MIC, wild-type E. coli", "format": "cell-based", "settings": "Escherichia coli, read-out: MIC WT", "summary_of_the_method": "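Single colonies grown in M9; compounds diluted two-fold in DMSO and added to 3–7 × 10^5 CFU/ml cultures, final 40 to 0.3 µg/mL. Wells at and above MIC diluted 1:10 and plated on LB agar for MBC.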"}, "[2]": {"system": "E. coli clinical isolates", "experiment": "MIC on panel of E. coli clinical isolates", "format": "cell-based"}, "NfsB": {"target": "T1, NfsB (Escherichia coli, UniProt P38489)", "T1 construct": "His-tag; made in house; host or cells: E. coli BL21(DE3), pET28a (pET-nfsB)", "T1 sequence (P38489 whole entry)": "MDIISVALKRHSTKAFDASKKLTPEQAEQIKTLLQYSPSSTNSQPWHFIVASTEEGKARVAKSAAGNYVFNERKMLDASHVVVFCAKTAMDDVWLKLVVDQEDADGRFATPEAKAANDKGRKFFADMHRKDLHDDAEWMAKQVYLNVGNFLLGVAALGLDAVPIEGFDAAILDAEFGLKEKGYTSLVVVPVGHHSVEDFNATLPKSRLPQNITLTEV", "experiment": "Nitroreductase activity assay, NfsB", "format": "biochemical, E. coli", "settings": "20 μM compound, 40 μM NADH, 70 nM NfsB; slope of initial velocity", "description": "Enzyme reducing each of the substrates are measured by monitoring the concomitant oxidation of NADPH by NfsA and NADH by NfsB in a fluorescence based assay. The reduction in fluorescence due to the NADH oxidation (excitation 350 nm, emission 460 nm) and NADPH oxidation (excitation 340 nm, emission 485 nm) is recorded using a TECAN Infinite M200Pro spectrophotometer, in half area solid black microtiter plates. This change in fluorescence directly corelates to the reduction of the nitro-compounds in the reaction. The NfsA assays is performed by initiating the reactions with 40 μM NADPH and 10 nM NfsA in 50 mM Tris-HCl (pH 7.4), 5 mM EDTA against 20 μM substrate (5 μl of compounds/substrate dissolved in 100% DMSO) in a total reaction volume of 100 μl at 25 °C. Similarly, the NfsB assay is also performed by initiating the reactions with 40 μM NADH and 70 nM NfsB in 50 mM Tris-HCl (pH 7.4), 5 mM EDTA against 20 μM substrate in a total reaction volume of 100 μl. […] All reactions are performed in replicates of two or more and the fluorescence measurements are made at 10 second intervals for 5–10 minutes.\nLow solubility of the compounds/substrates under the NfsA and NfsB assay conditions precluded determination of their Km. […] The relative fluorescence units (RFU) obtained due to NADPH (excitation 340 nm, emission 485 nm) or NADH (excitation 350 nm, emission 460 nm) oxidation of the first 90 sec reaction is used to compute the slopes using linear regression analysis on GraphPad Prism. Appropriate blank reactions are included to account for background fluorescence/quenching from each of the components such as DMSO, the compound itself and auto-oxidation of NADPH or NADH. Activity of NfsB with a known substrate such as nitrofurantoin is used as a benchmark to plot the relative activities with all the test compounds."}, "[3]": {"system": "Salmonella typhimurium clinical strain", "experiment": "MIC, Salmonella typhimurium", "format": "cell-based", "description": "The inoculum used for all the experiments is derived from a single seed lot that is maintained as glycerol stocks at −80 °C and are sub cultured on LB plate for isolated colonies. Single colony of each strain is grown in M9 medium. All test compound stocks and dilutions are prepared in DMSO. Serial two-fold dilutions of compounds are prepared separately, with the concentrations ranging from 2 mg/mL to 0.015 mg/mL. To 150 µl (3–7 × 10^5 CFU/ml) of bacterial culture in 96 well microtitre plates, 3 μL compound from each of the dilutions is added to respective wells to obtain final concentrations ranging from 40 µg/mL to 0.3 µg/mL of the test compounds. Media control, culture control and appropriate reference drug controls are included. […] Growth is monitored by checking absorbance at 600 nm (A600). […] The samples from MIC and above concentrations are plated for MBC (Minimum Bactericidal Concentration). The samples are diluted 1:10 and plated on LB agar plates. […] The killing kinetics is determined by enumerating survivors at various time points following compound exposure. E. coli cells (~10^7 CFU/ml; A600 of 0.1) are treated with various concentrations (40 µg/mL to 0.3 µg/mL) of compounds in a 96-well microtitre plate. […] Data is expressed as the log10 CFU for each drug treatment."}}, "note": "Like-named read-outs stand apart in the source and are kept apart here.", "data": [{"compound": "O=C(Nc1nc(-c2ccc(F)cc2F)cs1)c1ccc([N+](=O)[O-])s1", "note": "[compound 12, N-(4-(2,4-difluorophenyl)thiazol-2-yl)-5-nitrothiophene-2-carboxamide]", "values": [{"measurement": "MIC", "setting": "[1]; BW25113, E. coli WT BW25113", "value": 0.6, "unit": "µg/mL"}, {"measurement": "MIC", "setting": "[1]; BW25113, Table S11", "value": 0.6, "unit": "µg/mL"}, {"measurement": "MIC Range", "setting": "[2]; 75 E.coli clinical isolates", "value": "0.06 to 40", "unit": "µg/mL"}, {"measurement": "MIC50", "setting": "[2]; Escherichia coli, 75 E.coli clinical isolates, 50% clinical isolates", "value": 2.5, "unit": "µg/mL"}, {"measurement": "MIC90", "setting": "[2]; Escherichia coli, 75 E.coli clinical isolates, 90% clinical isolates", "value": 10, "unit": "µg/mL"}, {"measurement": "MIC", "setting": "[2]; strain SEC001", "value": 4, "unit": "µg/mL"}, {"measurement": "MIC", "setting": "[2]; strain SEC002", "value": 4, "unit": "µg/mL"}, {"measurement": "MIC", "setting": "[2]; strain SEC003", "value": 4, "unit": "µg/mL"}, {"measurement": "MIC", "setting": "[2]; strain SEC004", "value": 32, "unit": "µg/mL"}, {"measurement": "MIC", "setting": "[2]; strain SEC005", "value": 4, "unit": "µg/mL"}, {"measurement": "MIC", "setting": "[2]; strain SEC006", "value": 4, "unit": "µg/mL"}, {"measurement": "MIC", "setting": "[2]; strain SEC007", "value": 2, "unit": "µg/mL"}, {"measurement": "MIC", "setting": "[2]; strain SEC008", "value": 32, "unit": "µg/mL"}, {"measurement": "MIC", "setting": "[2]; strain SEC011", "value": 2, "unit": "µg/mL"}, {"measurement": "MIC", "setting": "[2]; strain SEC012", "value": 1, "unit": "µg/mL"}, {"measurement": "MIC", "setting": "[2]; strain SEC013", "value": 32, "unit": "µg/mL"}, {"measurement": "MIC", "setting": "[2]; strain SEC014", "value": 2, "unit": "µg/mL"}, {"measurement": "MIC", "setting": "[2]; strain SEC015", "value": 32, "unit": "µg/mL"}, {"measurement": "MIC", "setting": "[2]; strain SEC016", "value": 2, "unit": "µg/mL"}, {"measurement": "MIC", "setting": "[2]; strain SEC017", "value": 0.06, "unit": "µg/mL"}, {"measurement": "MIC", "setting": "[2]; strain SEC018", "value": 2, "unit": "µg/mL"}, {"measurement": "MIC", "setting": "[2]; strain SEC019", "value": 2, "unit": "µg/mL"}, {"measurement": "MIC", "setting": "[2]; strain SEC020", "value": 32, "unit": "µg/mL"}, {"measurement": "MIC", "setting": "[2]; strain SEC021", "value": 1, "unit": "µg/mL"}, {"measurement": "MIC", "setting": "[2]; strain SEC022", "value": 2, "unit": "µg/mL"}, {"measurement": "MIC", "setting": "[2]; strain SEC023", "value": 32, "unit": "µg/mL"}, {"measurement": "MIC", "setting": "[2]; strain SEC024", "value": 2, "unit": "µg/mL"}, {"measurement": "MIC", "setting": "[2]; strain SEC025", "value": 2, "unit": "µg/mL"}, {"measurement": "MIC", "setting": "[2]; strain SEC026", "value": 2, "unit": "µg/mL"}, {"measurement": "MIC", "setting": "[2]; strain SEC028", "value": 1, "unit": "µg/mL"}, {"measurement": "MIC", "setting": "[2]; strain SEC029", "value": 2, "unit": "µg/mL"}, {"measurement": "MIC", "setting": "[2]; strain SEC031", "value": 2, "unit": "µg/mL"}, {"measurement": "MIC", "setting": "[2]; strain SEC032", "value": 4, "unit": "µg/mL"}, {"measurement": "MIC", "setting": "[2]; strain SEC033", "value": 2, "unit": "µg/mL"}, {"measurement": "MIC", "setting": "[2]; strain SEC034", "value": 2, "unit": "µg/mL"}, {"measurement": "MIC", "setting": "[2]; strain SEC035", "value": 2, "unit": "µg/mL"}, {"measurement": "MIC", "setting": "[2]; strain SEC036", "value": 32, "unit": "µg/mL"}, {"measurement": "MIC", "setting": "[2]; strain SEC037", "value": 1, "unit": "µg/mL"}, {"measurement": "MIC", "setting": "[2]; strain SEC038", "value": 2, "unit": "µg/mL"}, {"measurement": "MIC", "setting": "[2]; strain SEC039", "value": 2, "unit": "µg/mL"}, {"measurement": "MIC", "setting": "[2]; strain SEC040", "value": 2, "unit": "µg/mL"}, {"measurement": "MIC", "setting": "[2]; strain SEC041", "value": 2, "unit": "µg/mL"}, {"measurement": "MIC", "setting": "[2]; strain SEC042", "value": 4, "unit": "µg/mL"}, {"measurement": "MIC", "setting": "[2]; strain SEC043", "value": 2, "unit": "µg/mL"}, {"measurement": "MIC", "setting": "[2]; strain SEC044", "value": 32, "unit": "µg/mL"}, {"measurement": "MIC", "setting": "[2]; strain SEC045", "value": 2, "unit": "µg/mL"}, {"measurement": "MIC", "setting": "[2]; strain SEC046", "value": 2, "unit": "µg/mL"}, {"measurement": "MIC", "setting": "[2]; strain SEC047", "value": 2, "unit": "µg/mL"}, {"measurement": "MIC", "setting": "[2]; strain SEC048", "value": 32, "unit": "µg/mL"}, {"measurement": "MIC", "setting": "[2]; strain SEC049", "value": 32, "unit": "µg/mL"}, {"measurement": "MIC", "setting": "[2]; strain SEC050", "value": 4, "unit": "µg/mL"}, {"measurement": "MIC", "setting": "[2]; strain SEC051", "value": 4, "unit": "µg/mL"}, {"measurement": "MIC", "setting": "[2]; strain SEC052", "value": 1, "unit": "µg/mL"}, {"measurement": "MIC", "setting": "[2]; strain SEC053", "value": 2, "unit": "µg/mL"}, {"measurement": "MIC", "setting": "[2]; strain SEC054", "value": 2, "unit": "µg/mL"}, {"measurement": "MIC", "setting": "[2]; strain SEC055", "value": 2, "unit": "µg/mL"}, {"measurement": "MIC", "setting": "[2]; strain SEC057", "value": 4, "unit": "µg/mL"}, {"measurement": "MIC", "setting": "[2]; strain SEC058", "value": 4, "unit": "µg/mL"}, {"measurement": "MIC", "setting": "[2]; strain SEC059", "value": 2, "unit": "µg/mL"}, {"measurement": "MIC", "setting": "[2]; strain SEC060", "value": 2, "unit": "µg/mL"}, {"measurement": "MIC", "setting": "[2]; strain SEC061", "value": 2, "unit": "µg/mL"}, {"measurement": "MIC", "setting": "[2]; strain SEC062", "value": 1, "unit": "µg/mL"}, {"measurement": "MIC", "setting": "[2]; strain SEC063", "value": 2, "unit": "µg/mL"}, {"measurement": "MIC", "setting": "[2]; strain SEC064", "value": 4, "unit": "µg/mL"}, {"measurement": "MIC", "setting": "[2]; strain SEC065", "value": 2, "unit": "µg/mL"}, {"measurement": "MIC", "setting": "[2]; strain SEC067", "value": 2, "unit": "µg/mL"}, {"measurement": "MIC", "setting": "[2]; strain SEC068", "value": 4, "unit": "µg/mL"}, {"measurement": "MIC", "setting": "[2]; strain SEC069", "value": 4, "unit": "µg/mL"}, {"measurement": "MIC", "setting": "[2]; strain SEC070", "value": 4, "unit": "µg/mL"}, {"measurement": "MIC", "setting": "[2]; strain SEC071", "value": 2, "unit": "µg/mL"}, {"measurement": "MIC", "setting": "[2]; strain SEC072", "value": 2, "unit": "µg/mL"}, {"measurement": "MIC", "setting": "[2]; strain SEC073", "value": 4, "unit": "µg/mL"}, {"measurement": "MIC", "setting": "[2]; strain SEC074", "value": 2, "unit": "µg/mL"}, {"measurement": "MIC", "setting": "[2]; strain SEC075", "value": 4, "unit": "µg/mL"}, {"measurement": "MIC", "setting": "[2]; strain SEC076", "value": 2, "unit": "µg/mL"}, {"measurement": "MIC", "setting": "[2]; strain SEC077", "value": 2, "unit": "µg/mL"}, {"measurement": "MIC", "setting": "[2]; strain SEC078", "value": 8, "unit": "µg/mL"}, {"measurement": "MIC", "setting": "[2]; strain SEC079", "value": 4, "unit": "µg/mL"}, {"measurement": "MIC", "setting": "[2]; strain SEC080", "value": 4, "unit": "µg/mL"}, {"measurement": "NfsB activity (rate of compound conversion)", "setting": "NfsB", "value": 6.26, "unit": "µM/min"}, {"measurement": "MIC Salmonella typhimurium", "setting": "[3]", "value": 2.5, "unit": "µg/mL"}]}]}
